Measurements from PubChem BioAssay AID1250 (SRMLSC, 2008).
Calls of active or inactive are those of the source.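 Rule for the calls: active = inhibition of at least 30% at one or more tested concentrations; inactive = inhibition below 30% at every dose.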

Assay: antiviral protection against BTV-induced cell death – arbovirus, BSR cells, confirmation (AID 1250)
Conditions: BSR cells, Bluetongue virus CPE, ATP luminescence, 72 h; at 20 µM (top of the series)
In the case of `CSc1nc(C)c(CCO)c(=O)[nH]1`, the CPE inhibition is reported as 3.71% (inactive).
For `CN(C)C(=O)COC(=O)c1ccccc1Nc1ccc(SC(F)F)cc1`, the CPE inhibition was 23% (inactive).
In the case of `Cc1cccc2c1nc(-c1ccccc1)n1nnnc21`, the CPE inhibition is reported as -3.74% (inactive).
In the case of `O=C(Nc1cccc(NC(=O)c2cccs2)c1)c1ccco1`, the CPE inhibition is reported as 20.1% (inactive).
In the case of `CCOc1cccc(C(=O)Nc2ccccc2N2CCN(C(=O)C(C)C)CC2)c1`, the CPE inhibition is reported as 9.61% (inactive).
With `C/C(=N\NC(=O)COc1ccc([N+](=O)[O-])cc1)C(C)(C)C` the CPE inhibition was 4.19% (inactive).
In the case of `CSc1nc(-c2ccc(Cl)cc2Cl)[nH]c(=O)c1C#N`, the CPE inhibition is reported as 24.3% (inactive).
In the case of `O=C(COc1ccc(Cl)cc1)Nc1ncc([N+](=O)[O-])s1`, the CPE inhibition is reported as 25.3% (inactive).
In the case of `CCCc1c(OCCCCc2nn[nH]n2)ccc(C(C)=O)c1O`, the CPE inhibition is reported as 12.8% (inactive).
In the case of `CCn1nc(C)c(NC(=O)Nc2cccc(Cl)c2Cl)c1C`, the CPE inhibition is reported as 2.62% (inactive).
With `CC(=O)Nc1ccc(-c2csc(NC(=O)c3ccc(C)o3)n2)cc1` the CPE inhibition was 27.8% (inactive).
With `NC(=O)c1cc([N+](=O)[O-])ccc1NCc1cccnc1` the CPE inhibition was 3.11% (inactive).
For `Cc1ccc(NC(=O)COc2ccc(Br)cc2CO)cc1`, the CPE inhibition was 10.5% (inactive).
For `N#CCCN(Cc1cccnc1)C(=S)Nc1ccc(OC(F)F)cc1`, the CPE inhibition was 3.08% (inactive).
For `C/C(C/C(C)=C1/SC(=S)NC1=O)=C1\SC(=S)NC1=O`, the CPE inhibition was 6.76% (inactive).
With `COC(=O)C1=C(C)N(Cc2ccco2)C(=O)N[C@@H]1c1cccc(C(F)(F)F)c1` the CPE inhibition was 21.6% (inactive).
In the case of `Cc1ccc(S(=O)(=O)CCSc2cccc(C(=O)Nc3ccccc3C(=O)O)c2)cc1`, the CPE inhibition is reported as 28.2% (inactive).
With `Cc1ccc(C2CC(=O)c3cnn(-c4nc(C)cc(C)n4)c3C2)cc1` (centres undefined) the CPE inhibition was 5.7% (inactive).
For `Cc1ccc2nc(-c3ccc(Br)o3)oc(=O)c2c1`, the CPE inhibition was 21.3% (inactive).
For `CCOC(=O)C1CCCN(Cc2ccccc2Cl)C1` (centres undefined), the CPE inhibition was 6.31% (inactive).
For `Cc1nc2c(C(=O)NCCC(C)C)c[nH]n2c(=O)c1Cl`, the CPE inhibition was 9.83% (inactive).
For `CCSc1nnc(NC(=O)CSc2nnc(Cc3cccn3C)n2-c2ccc(F)cc2)s1`, the CPE inhibition was 13.9% (inactive).
For `COCCn1c(SCC(=O)Nc2cc(Cl)ccc2OC)nc2c(c1=O)SC(C)C2` (centres undefined), the CPE inhibition was 17.7% (inactive).
With `O=C(/C=C/c1ccc2c(c1)OCCCO2)c1ccc2ccccc2c1O` the CPE inhibition was 18.2% (inactive).
With `CCCCn1c(SCc2cccc([N+](=O)[O-])c2)nc2ccsc2c1=O` the CPE inhibition was 3.1% (inactive).
In the case of `CC1=NN2C(=N)/C(=C\c3ccc(SCc4ccccc4)o3)C(=O)N=C2S1`, the CPE inhibition is reported as 21.1% (inactive).
In the case of `COc1ccc(-c2noc(CSc3nc(-c4ccccc4)cc(=O)[nH]3)n2)cc1OC`, the CPE inhibition is reported as 26.6% (inactive).
In the case of `CC(C)c1cc(C(F)(F)F)n2nc(C(=O)Nc3ccc4c(c3)OCO4)cc2n1`, the CPE inhibition is reported as 9.64% (inactive).
With `COc1ccc(-c2csc(Nc3ncccc3C)n2)cc1OC` the CPE inhibition was 14.9% (inactive).
In the case of `Cn1c(Oc2ccccc2NCc2cc(Br)ccc2O)cc(=O)n(C)c1=O`, the CPE inhibition is reported as 14.3% (inactive).
In the case of `COc1cc(-c2nnc(-c3ccc(N4CCOCC4)cc3)o2)cc(OC)c1OC`, the CPE inhibition is reported as 8.33% (inactive).
In the case of `Cc1ccccc1N=C1SCC(=O)N1Cc1ccccc1`, the CPE inhibition is reported as 3.79% (inactive).
For `O=c1oc(-c2ccccc2NS(=O)(=O)c2ccc3ccccc3c2)nc2ccccc12`, the CPE inhibition was 10.9% (inactive).
For `CCOC(=O)N1CCC(Nc2c(Nc3cccc(CC)c3)c(=O)c2=O)CC1`, the CPE inhibition was 9.52% (inactive).
With `CC(C)(CO)CNC(=O)CC1C(=O)NCCN1CC(c1ccccc1)c1ccccc1` (centres undefined) the CPE inhibition was 1.48% (inactive).
In the case of `N=C(N)SCc1nc2ccccc2c(=O)n1-c1ccccc1`, the CPE inhibition is reported as -4.62% (inactive).
For `Cc1ccc(-c2cc(-c3ccccc3)no2)c(O)c1`, the CPE inhibition was 15.6% (inactive).
With `C#CCSc1ncc(S(=O)(=O)c2ccccc2)c(=O)[nH]1` the CPE inhibition was 1.65% (inactive).
For `CCCCCCc1cc2cc(C(=O)Nc3ccc(OC)cc3)c(=O)oc2cc1O`, the CPE inhibition was -3.41% (inactive).
With `CCOc1ccc2nc(NC(=O)C3CCN(S(=O)(=O)c4cnc[nH]4)CC3)sc2c1` the CPE inhibition was 11.9% (inactive).
For `COc1cccc(-n2c(C)cc(/C=C3/C(=N)N4C(=NC3=O)SN=C4S(C)(=O)=O)c2C)c1`, the CPE inhibition was 19.6% (inactive).
For `Cc1nc(CNS(=O)(=O)c2cccnc2)cs1`, the CPE inhibition was 4.68% (inactive).
For `C/C=C/c1ccc(OCCCCOc2ccccc2C(C)=O)c(OC)c1`, the CPE inhibition was 11.9% (inactive).
For `O=C(O)c1ccccc1Nc1ccc([N+](=O)[O-])cc1`, the CPE inhibition was 24.6% (inactive).
With `O=C(C1CC1)N1CCN=C1SCc1ccc(Cl)cc1` the CPE inhibition was 0% (inactive).
With `O=C(O)CCn1cc(/C=C/C(=O)c2ccc(Cl)cc2)c(-c2ccc(Br)cc2)n1` the CPE inhibition was 13.8% (inactive).
With `C#CCNC(=O)C1=C[C@H](c2cn(C(C)=O)c3ccccc23)C[C@H](OCc2ccc(CO)cc2)O1` the CPE inhibition was -0.3% (inactive).
For `CCSc1nnc(NC(=O)c2ccc(C)cc2)s1`, the CPE inhibition was 5.39% (inactive).
For `COc1cc(C(=O)Nc2sc(C)c(C)c2C(=O)O)cc(OC)c1OC`, the CPE inhibition was 26% (inactive).
With `COCCn1c(SCc2nc3scc(-c4ccc(Cl)cc4)c3c(=O)[nH]2)nnc1-c1cccc(C)c1` the CPE inhibition was 17.4% (inactive).
With `C/C(=N\Nc1nc2ccccc2[nH]1)c1ccc2c(c1)OCO2` the CPE inhibition was 8.76% (inactive).
With `O=c1[nH]c(SCc2ccccc2)nnc1-c1ccccc1` the CPE inhibition was 3.2% (inactive).
With `COc1ccc(C(=O)Nc2cc(Cl)ccc2C(=O)O)cc1` the CPE inhibition was 17.7% (inactive).
For `CCc1nnc(NS(=O)(=O)c2ccc(NC(=O)COc3ccc4ccccc4c3)cc2)s1`, the CPE inhibition was 25.7% (inactive).
In the case of `Oc1ccc(F)cc1-c1cc(-c2ccc3c(c2)OCCO3)n[nH]1`, the CPE inhibition is reported as 7.86% (inactive).
In the case of `COCCN1C(=O)/C(=C/c2ccc(Oc3ccc([N+](=O)[O-])cn3)c(OC)c2)SC1=Nc1ccccc1`, the CPE inhibition is reported as 25.6% (inactive).
With `O=c1c(-c2ccccc2)c[nH]n1-c1cccc([N+](=O)[O-])c1` the CPE inhibition was 14.9% (inactive).
With `N#Cc1c(NC(=O)CSc2nnc(-c3ccccc3)o2)sc2c1CCCC2` the CPE inhibition was -0.12% (inactive).
For `O=c1/c(=C/c2ccc(O)c([N+](=O)[O-])c2)sc2nc3ccccc3n12`, the CPE inhibition was 12.4% (inactive).
In the case of `CCCN(CCC)C(=O)CSc1nc2c(sc(=S)n2-c2ccc(OCC)cc2)c(=O)[nH]1`, the CPE inhibition is reported as 28.7% (inactive).
For `N#Cc1c(-c2ccco2)nc(SCC(=O)Nc2ccc(S(N)(=O)=O)cc2)[nH]c1=O`, the CPE inhibition was 4.9% (inactive).
For `COc1ccc(/C=C2/C(=O)N(CC3CCCO3)C(=S)N2C)c(OC)c1` (centres undefined), the CPE inhibition was 1.63% (inactive).
With `O=C(Nc1ccc(OC(F)(F)F)cc1)c1[nH]ncc1[N+](=O)[O-]` the CPE inhibition was 25.3% (inactive).
With `Cc1ccc(NC(=O)c2cncc(Br)c2)c(O)c1` the CPE inhibition was 13.8% (inactive).
With `O=c1oc(/C=C/c2ccccc2)nc2ccccc12` the CPE inhibition was 16.6% (inactive).
For `COC(=O)c1ccccc1NC(=O)CN1CCC(NC(=O)c2ccc(C)cc2)CC1`, the CPE inhibition was 21.3% (inactive).
In the case of `CCOC(=O)c1c(-c2ccccc2)csc1NC(=S)N(CC)CC`, the CPE inhibition is reported as 10.8% (inactive).
For `CC1Cc2ccccc2N1C(=O)CSc1ccccc1` (centres undefined), the CPE inhibition was -1.84% (inactive).
In the case of `CCOc1ccc(S(=O)(=O)N2CCN(c3ccccc3OC)CC2)c2cccnc12`, the CPE inhibition is reported as 17.1% (inactive).
